Measurements from patent publication US12637459B2, “Solid state forms of Lorecivivint” (TAPI CZECH INDUSTRIES S.R.O., priority 2020, dated 2026).

Experiments:
[1] = Hygroscopicity of the crystalline form; format: physicochemical; conditions: solid state form
[2] = Polymorphic stability at up to 100% relative humidity at room temperature; format: physicochemical

hygroscopicity [1]: non-hygroscopic | time polymorphically stable [2]: at least 7 days
SMILES: CC(C)CC(=O)Nc1cncc(-c2ccc3[nH]nc(-c4nc5c(-c6cccc(F)c6)cncc5[nH]4)c3c2)c1 [Form Q, N-[5-[3-[7-(3-fluorophenyl)-3H-imidazo[4,5-c]pyridin-2-yl]-1H-indazol-5-yl]pyridin-3-yl]-3-methylbutanamide]
